Assay results published in ChEMBL document CHEMBL1201862, “PubChem BioAssay data set” (2004).
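1) Cells in 96-well plates. 2) Compound, 48 h, 5 concentrations. 3) Linear interpolation between surrounding doses. 4) Unreached endpoint = highest concentration. GI50 is the concentration that inhibits growth by half.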 Calls of active or inactive are those of the source. No stated cut-off is given here; in the data, active = GI50 up to about 1.1 µM and inactive = higher.

Key:
Assay in all cases: NCI-60 cell line screen, 48 h
T47D = system: T47D
DU-145 = system: DU-145
A498 = system: A498
K562 = system: K562
IGROV-1 = system: IGROV-1
HCT-116 = system: HCT-116
NCI-H460 = system: NCI-H460
UACC-257 = system: UACC-257
SNB-75 = system: SNB-75
Hs-578T = system: Hs-578T
EKVX = system: EKVX
TK-10 = system: TK-10
MDA-MB-435 = system: MDA-MB-435
786-0 = system: 786-0
MOLT-4 = system: MOLT-4
SK-MEL-5 = system: SK-MEL-5
KM12 = system: KM12
LOX IMVI = system: LOX IMVI
U-251 = system: U-251
M14 = system: M14

SMILES | GI50 (T47D) | GI50 (DU-145) | GI50 (A498) | GI50 (K562) | GI50 (IGROV-1) | GI50 (HCT-116) | GI50 (NCI-H460) | GI50 (UACC-257) | GI50 (SNB-75) | GI50 (Hs-578T) | GI50 (EKVX) | GI50 (TK-10) | GI50 (MDA-MB-435) | GI50 (786-0) | GI50 (MOLT-4) | GI50 (SK-MEL-5) | GI50 (KM12) | GI50 (LOX IMVI) | GI50 (U-251) | GI50 (M14)
NNC(=O)CCC(NS(=O)(=O)c1ccc(Cl)cc1)C(=O)NN (stereo not given) | > 100 µM (inactive) | > 100 µM (inactive) | > 100 µM (inactive) | > 100 µM (inactive) | > 100 µM (inactive) | > 100 µM (inactive) | > 100 µM (inactive) | > 100 µM (inactive) | > 100 µM (inactive) | > 100 µM (inactive) | > 100 µM (inactive) | > 100 µM (inactive) | > 100 µM (inactive) | > 100 µM (inactive) | > 100 µM (inactive) | > 100 µM (inactive) | > 100 µM (inactive) | > 100 µM (inactive) | > 100 µM (inactive) | > 100 µM (inactive)
COc1cc2cc(C(=O)N3C[C@H](CCl)c4c3cc(N)c3ccccc43)[nH]c2c(OC)c1OC | < 0.005 µM (active) | 0.409 µM (active) | 0.0075 µM (active) | 2.39 µM (inactive) | 0.218 µM (active) | 0.00695 µM (active) | 0.0239 µM (active) | 1.6 µM (inactive) | 2.19 µM (inactive) | 0.0127 µM (active) | 0.0103 µM (active) | 0.005 µM (active) | 0.00577 µM (active) | 5.11 µM (inactive) | 7.82 µM (inactive) | < 0.005 µM (active) | 0.00187 µM (active) | 0.519 µM (active) | 0.279 µM (active) | 0.502 µM (active)
C=C1C(=O)[C@@]23CC[C@@H]4[C@@]5(C)CCC[C@@]4(OC5=O)[C@@]2(C)CC[C@@H]1C3 | 4.89 µM (inactive) | 3.78 µM (inactive) | 3.24 µM (inactive) | 0.667 µM (active) | 1.72 µM (inactive) | 1.13 µM (inactive) | 1.41 µM (inactive) | 1.49 µM (inactive) | 2.8 µM (inactive) | 1.93 µM (inactive) | 3.15 µM (inactive) | 1.11 µM (active) | 1.83 µM (inactive) | 0.565 µM (active) | 1.75 µM (inactive) | 0.962 µM (active) | 2.59 µM (inactive) | 0.422 µM (active) | 1.97 µM (inactive) | 2.17 µM (inactive)
O=C(/C=C/c1ccccc1)CCN1CCCCC1 | 35.5 µM (inactive) | > 100 µM (inactive) | 39.2 µM (inactive) | 40.1 µM (inactive) | 43.1 µM (inactive) | 17.4 µM (inactive) | 40.7 µM (inactive) | 37.4 µM (inactive) | 36.8 µM (inactive) | 30.9 µM (inactive) | > 100 µM (inactive) | 51.3 µM (inactive) | 28.2 µM (inactive) | 20.5 µM (inactive) | 24.1 µM (inactive) | 32.8 µM (inactive) | 28.5 µM (inactive) | 17.5 µM (inactive) | 23.6 µM (inactive) | 17.5 µM (inactive)
COc1nc2ncc([C@@H](O)[C@H](O)CO)nc2c(=O)n1C | > 100 µM (inactive) | > 100 µM (inactive) | > 100 µM (inactive) | > 100 µM (inactive) | > 100 µM (inactive) | > 100 µM (inactive) | > 100 µM (inactive) | > 100 µM (inactive) | > 100 µM (inactive) | > 100 µM (inactive) | > 100 µM (inactive) | > 100 µM (inactive) | > 100 µM (inactive) | > 100 µM (inactive) | > 100 µM (inactive) | > 100 µM (inactive) | > 100 µM (inactive) | > 100 µM (inactive) | > 100 µM (inactive) | > 100 µM (inactive)
CSCC[C@H](NC(=O)[C@H](CC(C)C)NC(=O)[C@@H](Cc1ccccc1)NC(=O)CNC(=O)[C@@H](NC(=O)[C@H](C)NC(=O)[C@H](Cc1c[nH]c2ccccc12)NC(=O)[C@H](CCC(N)=O)NC(=O)[C@H](N)CC(N)=O)C(C)C)C(N)=O | > 12.5 µM (inactive) | > 12.5 µM (inactive) | > 12.5 µM (inactive) | > 12.5 µM (inactive) | > 12.5 µM (inactive) | > 12.5 µM (inactive) | > 12.5 µM (inactive) | > 12.5 µM (inactive) | > 12.5 µM (inactive) | > 12.5 µM (inactive) | > 12.5 µM (inactive) | > 12.5 µM (inactive) | > 12.5 µM (inactive) | > 12.5 µM (inactive) | > 12.5 µM (inactive) | > 12.5 µM (inactive) | > 12.5 µM (inactive) | > 12.5 µM (inactive) | > 12.5 µM (inactive) | > 12.5 µM (inactive)
O=C(O)c1cc(/N=C/c2ccccc2O)cc(C(=O)O)c1 | > 100 µM (inactive) | > 100 µM (inactive) | > 100 µM (inactive) | > 100 µM (inactive) | > 100 µM (inactive) | > 100 µM (inactive) | > 100 µM (inactive) | > 100 µM (inactive) | > 100 µM (inactive) | > 100 µM (inactive) | > 100 µM (inactive) | > 100 µM (inactive) | > 100 µM (inactive) | > 100 µM (inactive) | 86.9 µM (inactive) | > 100 µM (inactive) | > 100 µM (inactive) | > 100 µM (inactive) | > 100 µM (inactive) | > 100 µM (inactive)
CC[C@@]1(O)C(=O)OCc2c1cc1n(c2=O)Cc2c-1nc1ccc(O)cc1c2[Si](C)(C)C(C)(C)C [AR-67] | < 0.01 µM (active) | < 0.01 µM (active) | 0.0211 µM (active) | < 0.0219 µM (active) | < 0.019 µM (active) | < 0.01 µM (active) | < 0.01 µM (active) | < 0.0149 µM (active) | < 0.01 µM (active) | 0.339 µM (active) | 0.333 µM (active) | 0.443 µM (active) | < 0.01 µM (active) | < 0.01 µM (active) | < 0.01 µM (active) | < 0.01 µM (active) | 0.024 µM (active) | < 0.01 µM (active) | < 0.01 µM (active) | < 0.01 µM (active)
CCCCCNc1nonc1N | > 100 µM (inactive) | > 100 µM (inactive) | > 84.9 µM (inactive) | > 100 µM (inactive) | > 100 µM (inactive) | > 100 µM (inactive) | > 100 µM (inactive) | > 100 µM (inactive) | > 100 µM (inactive) | > 72.8 µM (inactive) | > 100 µM (inactive) | > 100 µM (inactive) | > 100 µM (inactive) | > 100 µM (inactive) | > 100 µM (inactive) | > 100 µM (inactive) | > 100 µM (inactive) | > 100 µM (inactive) | > 100 µM (inactive) | > 100 µM (inactive)
O=C1C(NCCc2cc(Br)c(O)c(Br)c2)=CC(=O)c2ncccc21 | 13.5 µM (inactive) | 3.66 µM (inactive) | 4.08 µM (inactive) | 3.21 µM (inactive) | 4.15 µM (inactive) | 3.71 µM (inactive) | 2.37 µM (inactive) | 2.88 µM (inactive) | 1.31 µM (inactive) | 3.1 µM (inactive) | 16.3 µM (inactive) | 17.1 µM (inactive) | 1.69 µM (inactive) | 7.29 µM (inactive) | 6.71 µM (inactive) | 1.47 µM (inactive) | 4.43 µM (inactive) | 1.78 µM (inactive) | 5.55 µM (inactive) | 2.51 µM (inactive)
COc1ccc(Nc2nnc(-c3nsc4ccccc34)s2)cc1 | 20.1 µM (inactive) | > 100 µM (inactive) | 3.78 µM (inactive) | 47.2 µM (inactive) | > 100 µM (inactive) | 8.55 µM (inactive) | 15 µM (inactive) | > 100 µM (inactive) | 2.6 µM (inactive) | 21.9 µM (inactive) | 58.6 µM (inactive) | > 49.3 µM (inactive) | > 100 µM (inactive) | 3.41 µM (inactive) | 46.5 µM (inactive) | > 84.3 µM (inactive) | > 100 µM (inactive) | 41.1 µM (inactive) | > 47.1 µM (inactive) | > 100 µM (inactive)
O=C(O)CCC1C(=O)C2CCN1CC2 (stereo not given) | > 100 µM (inactive) | > 100 µM (inactive) | 97.7 µM (inactive) | > 100 µM (inactive) | > 100 µM (inactive) | > 100 µM (inactive) | > 100 µM (inactive) | > 100 µM (inactive) | > 100 µM (inactive) | > 100 µM (inactive) | > 100 µM (inactive) | > 100 µM (inactive) | > 100 µM (inactive) | > 100 µM (inactive) | > 100 µM (inactive) | > 100 µM (inactive) | > 100 µM (inactive) | > 100 µM (inactive) | > 100 µM (inactive) | > 100 µM (inactive)
CC(C)N(C(=O)C12C3(C(=O)C(C)(C)C)C4C5(C#N)C3C1(C(=O)C(C)(C)C)C5C42C(=O)C(C)(C)C)C(C)C (stereo not given) | > 100 µM (inactive) | > 100 µM (inactive) | > 100 µM (inactive) | > 100 µM (inactive) | > 100 µM (inactive) | > 100 µM (inactive) | > 100 µM (inactive) | > 100 µM (inactive) | 14.1 µM (inactive) | > 100 µM (inactive) | > 100 µM (inactive) | > 100 µM (inactive) | > 100 µM (inactive) | > 100 µM (inactive) | > 100 µM (inactive) | > 100 µM (inactive) | > 100 µM (inactive) | > 100 µM (inactive) | > 100 µM (inactive) | > 100 µM (inactive)
